Data from EP1506285B1, “COMBINATIONS OF ANTI-DR5 ANTIBODIES AND ANTI-DR4 ANTIBODIES AND OTHER THERAPEUTIC AGENTS” (UAB RESEARCH FOUNDATION, priority 2001, dated 2003).
Residues, ends and D or L forms follow the SMILES beside them. *: point of attachment. Cbz = O=C(OCc1ccccc1)*; CH2F = FC*

Columns and labels:
2LMP xenografts = assay: Analysis of apoptosis in xenografts, TUNEL; format: in vivo, Athymic nude mice; details: day 14; TRA-8 100 µg i.p. days 7, 10; adriamycin 3 mg/kg or paclitaxel 10 mg/kg days 8, 11
Experimental: One group of mice was untreated. The xenografts were dissected for the study of apoptosis on day 14 after tumor cell injection. The reason for the substantial reduction in treatment intensity compared to our standard treatment protocol was to allow adequate tumor tissue for analysis on day 14. Tunel assay for apoptosis in tumor xenografts was performed as follows. Five-micron paraffin sections of tissue were mounted on Superfrost/Plus slides and heated at 58°C for 1 h. Tissue sections were deparaffinized in three changes of xylene and rehydrated with one change of absolute ethanol, 95% ethanol, and 70% ethanol, each in 5-min increments. Then, the sections were placed in Tris-buffered saline (0.5M Tris base, 0.15 M NaCl, 0.0002% Triton X-100, pH 7.6). Apoptotic nuclei were detected using an Apop Tag Peroxidase kit (Intergen, Purchase, NY). Proteinase K (20 µg/ml in distilled deionized H2O) was added to the tissue specimens and incubated at room temperature for 15 min. Endogenous peroxidases were quenched with an aqueous solution of 3% hydrogen peroxide for 5 min. Sections were treated with an equilibration buffer for 3 0 min and then incubated with the TdT/enzyme (diluted in labeling reaction mix) for 1 h at 37°C using parafilm covers. During this incubation, the TdT enzyme binds the 3'-OH ends of DNA fragments and catalyzes the addition of digoxigenin-labeled and unlabeled deoxynucleotides. Negative controls were incubated with distilled H2O (diluted in labeling reaction mix) instead of the TdT enzyme. A stop buffer was added for 10 min at room temperature to terminate the labeling reaction. An anti-digoxigenin conjugate was added to each slide for 30 min. The chromagen 3,3' DAB was used to visualize the labeled 3' OH end of DNA fragments. The slides were then rinsed in deionized water and lightly counterstained with hematoxylin, dehydrated using graded alcohols and xylene and coverlsipped using Permount. Approximately 10 random fields were evaluated for percentage of Tunel stained and percentage of intensely stained apoptotic bodies throughout the tissue.

2LMP s.c. tumors = assay: TRA-8 therapy alone or with chemotherapy or radiation, breast cancer xenografts; format: in vivo, Athymic nude mice
Experimental: Athymic nude mice were injected s.c. with 3 x 10^7 2LMP cells. […] The growth of tumors was monitored over time. […] Tumor size and regression rates were determined.
Data from 6 independent experiments were analyzed by individual experiment. Treatment combinations were compared with respect to in vivo anti-tumor efficacy, i.e., inhibition of tumor growth, which was measured as three endpoints; extension of tumor doubling times, percentage of tumor regressions, and growth rates over time. The actual number of days at which the tumor doubled in surface area (product of two diameters) relative to baseline on day 7 after tumor cell injection was used in the doubling time analysis. The nonparametric Kruskal-Wallis test was used for median tumor doubling time comparisons between treatments. Fisher's exact test was used to compare the proportions of tumor regressions and relapse-free regressions across treatment groups. To determine if any combination therapy produced significant synergistic inhibition of tumor growth, i.e., more than additive, the growth curves from the serial area measurements were compared using a linear mixed model approach over the first 3 weeks after start of therapy (Lindsey, J.K. Models for Repeated Measurements, pp. 100-142, Oxford, 1993). To test for synergistic effects of the combination therapies, an interaction term was included in the model. If the interaction term was significant and the effect was inhibition of growth at a rate greater than additive then the interaction was considered synergistic.
A total of 166 animals, 10 treatment groups, and 6 independent experiments were included in the aggregate analysis. Treatment combinations were compared with respect to in vivo anti-tumor efficacy. The median tumor doubling times were analyzed using the Kruskal-Wallis test and Fisher's exact test was used to compare the proportions of tumor regressions and relapse-free regressions across treatment groups.

[1] = biological target: human DR5/hIgG1 fusion protein (residues 1-180 of the extracellular portion of DR5 fused to the constant region of human IgG1; immunogen, ~50 kDa) (human) (UniProt O14763); assay: ELISA on DR5-Ig, one-site binding model of non-linear regression
CLL B cells = assay: Cytotoxicity to chronic lympholytic leukemia B cells in vitro; format: cell-based, human; details: five patients; compared to normal primary B cells
Jurkat cells = assay: Cell viability / apoptosis induction in Jurkat cells; format: cell-based, human; details: 50 ng/ml TRA-8 overnight
Experimental: Cell viability is determined using (1) the ATPLite kit according to the manufacturer's instructions (Packard Instruments, Meriden, CT); (2) the MTT Cell proliferation/viability kit (Sigma); or (3) PI staining of dead cells and analyzed by flow cytometry. At end of culture, cells are stained with 10 µg/ml PI and PI negative cells are gated as viable cells. For analysis of condensed nuclei of hepatocytes, cells are stained with 10 ng/ml […] (Molecular Probes) and analyzed by flow cytometry.

[2] = biological target: T1, human DR5, full length, on cells (human, UniProt O14763 56-440); assay: radioisotope-labelled TRA-8 on a breast cancer cell line, compared with soluble TRAIL
T1 construct: whole, on cells; Used for Cos-7 cells transfected with full-length human DR5 cDNA and for human cells, cell lines and tissues that carry DR5 of their own; also called cell surface DR5; TRAIL-R2

For `COc1cccc2c1C(=O)c1c(O)c3c(c(O)c1C2=O)C[C@@](O)(C(=O)CO)C[C@@H]3O[C@H]1C[C@H](N)[C@H](O)[C@H](C)O1` [Adriamycin, doxorubicin], the “intense stained cells (TUNEL)” value (2LMP xenografts) was 6%, the “stained cells (TUNEL)” value (2LMP xenografts) was 8% and the “complete regressions of tumor” value (2LMP s.c. tumors; TRA-8/adriamycin experiment (Figure 25)) was “no complete regressions”. The “tumor growth compared to untreated controls” value (2LMP s.c. tumors; TRA-8/adriamycin experiment (Figure 25), 200 µg TRA-8, adriamycin 6 mg/kg i.v.) was “did not differ from controls”.

Work on “TRA-8 anti-human DR5 monoclonal antibody” yielded a Kd [1] of 3 nM.

In the case of `Cn1cc(C2=C(c3cn(CCCN)c4ccccc34)C(=O)NC2=O)c2ccccc21` [BisVIII, Bisindolylmaleimide VIII], the “susceptibility of CLL B cells” value (CLL B cells) is reported as “sensitive”.

Work on “soluble recombinant human TRAIL (FLAG-tagged, Alexis) (from UniProt P50591 95-281) (ligand)” yielded a Kd [1] of 59 nM.

With `CC(=O)O[C@H]1C(=O)[C@@]2(C)[C@H]([C@H](OC(=O)c3ccccc3)[C@]3(O)C[C@H](OC(=O)[C@H](O)[C@@H](NC(=O)c4ccccc4)c4ccccc4)C(C)=C1C3(C)C)[C@]1(OC(C)=O)CO[C@@H]1C[C@@H]2O` [Paclitaxel] the “intense stained cells (TUNEL)” value (2LMP xenografts) was 2%, the “stained cells (TUNEL)” value (2LMP xenografts) was 7% and the complete regressions (2LMP s.c. tumors; TRA-8/paclitaxel experiment (Figure 26)) was “none”.

In the case of `CC(NC(=O)C(NC(=O)OCc1ccccc1)C(C)C)C(=O)NC(CC(=O)O)C(=O)CF` (stereo not drawn) [Z-VAD] (Cbz-Val-Ala-Asp-CH2F; configuration not given here), the “inhibition of TRA-8-mediated cell death by caspase inhibitor” value (Jurkat cells) is reported as “completely inhibited”.

B1: TRA-8 anti-human DR5 monoclonal antibody (antibody, mouse IgG1, kappa, V domains shown)
VH: EVMLVESGGGLVKPGGSLKLSCAASGFTFSSYVMSWVRQTPEKRLEWVATISSGGSYTYYPDSVKGRFTISRDNAKNTLYLQMSSLRSEDTAMYYCARRGDSMITTDYWGQGTTLTVSS
VL: DIVMTQSHKFMSTSVGDRVSITCKASQDVGTAVAWYQQKPGQSPKLLIYWASTRHTGVPDRFTGSGSGTDFTLTISNVQSEDLADYFCQQYSSYRTFGGGTKLEIKR
notes: Mouse IgG1, kappa; also called monoclonal anti-DR5 antibody (clone: TRA-8); mouse-mouse hybridoma TRA-8, ATCC PTA-1428
With B1 the “fold higher binding activity than soluble TRAIL” value [2] was no less than 50 fold.
